Results published in a melting point compilation (Tetko et al.; mined from patent text by program, amines drawn as free bases though some values may be those of a salt).

Row | melting point | Structure (SMILES)
1 | 130 to 132 °C | CC(C)c1cccc(Nc2nc(Cl)nc(NCc3ccccn3)n2)c1
2 | 97 to 98.4 °C | CC(C)[C@@H](NS(=O)(=O)N1CCC(Oc2ccc(Cl)cn2)CC1)C(=O)NO
3 | 200 to 203 °C | NS(=O)(=O)c1cc2cc(OCC(=O)O)ccc2s1
4 | 209 to 210 °C | CS(=O)(=O)c1ccc(-c2cc(C(F)F)nn2-c2ccc(S(N)(=O)=O)cc2)cc1
5 | 101 to 103 °C | O/N=C(/c1ccc(Cl)cc1)C1CC1
6 | 161 to 162 °C | CCCOC(=O)C(N)C=CCP(=O)(O)O (centres undefined)
7 | 121 to 122 °C | COc1ccc([N+](=O)[O-])cc1CO
8 | 89 to 92 °C | C=CCOc1ccc(-c2ccc(C(=O)OCC)cc2)cc1
9 | 216 to 218 °C | Oc1ccc(-n2nc3ccccc3n2)cc1
10 | 181 to 182 °C | Cc1c[nH]c(=O)nc1OCc1ccccc1
11 | 216 °C | Cc1cc2cc(CN3CCCC3)cnc2cc1NC(=O)c1ccc(-c2ccc(Cl)s2)cc1
12 | 254 to 255 °C | N#Cc1c(-c2ccccc2)[nH]c(Cl)c1Cl
13 | 120 °C | CC(C)(C)OC(=O)c1[nH]c2cc(Cl)cc(Cl)c2c1C=C1CON(c2ccccc2)C1=O
14 | 93 to 96 °C | CCOC(=O)C(Cc1ccc(OC)cc1)c1cc2cc(C#N)ccc2s1 (centres undefined)
15 | 197 to 199 °C | NC(=O)C1(/C=C2\CN3C(=O)CC3O2)C=CC=CC1 (centres undefined)
16 | 202 to 204 °C | NC(=O)NCc1cc2c(Oc3ccc(Cl)cc3)cncc2s1
17 | 300 to 301 °C | CCOC(=O)c1csc(Nc2ccc(Br)cn2)n1
18 | 47 to 48 °C | Cc1ncc(C(=O)NCCOCCO[N+](=O)[O-])s1
19 | 235 to 237 °C | O=C(NCC12CC3CC(CC(C3)C1)C2)c1c(Cl)ccc2nc(N3CCC(C(=O)O)(c4ccccc4)CC3)ccc12

Row | melting point | Structure (SMILES)
20 | 26 to 27 °C | CCCCCCCCCCCCSCCCc1cc(C(C)(C)C)c(O)c(C(C)(C)C)c1
21 | 152 to 153 °C | CN1C(=O)CC(c2ccccc2)C1C(O)C#Cc1ccccc1 (centres undefined)
22 | 237 to 239 °C | CCCCOc1ccc(/C=C/c2nc3c([nH]2)c(=O)n(CCC)c(=O)n3CCC)cc1
23 | 152 to 153 °C | O=C(c1ccccc1)c1cc2ccnc(Cl)c2[nH]1
24 | 209 °C | CC1c2cc(C(C)(C)C)cc(C(C)(C)C)c2O[PH](=O)Oc2c1cc(C(C)(C)C)cc2C(C)(C)C (centres undefined)
25 | 190 to 192 °C | O=c1cc(-c2ccncc2)nc2n1CCC(c1ccncc1)N2CC(O)c1cccc(Br)c1 (centres undefined)
26 | 90 to 93 °C | OC(CNC1CCc2ccccc2C1)COc1cccc2c1CCCC2 (centres undefined)
27 | 61 to 64 °C | CCCCCCCCCCCCCCCCCCOc1ccc(C(=O)OC)c(O)c1
28 | 136 to 138 °C | COC1(c2cc(F)cc(OCc3ccc4c(c3)CCC(=S)N4C)c2)CCOCC1
29 | 220 °C | CS(=O)(=O)N[C@H]1CC[C@H](CCN2CCN(c3nccc4c3CCO4)CC2)CC1
30 | 150 to 151 °C | COc1cc(Nc2nccc(-c3ccc(N4CC[C@@H](N(C)C)C4)nc3)n2)cc(OC)c1OC
31 | 171 to 172 °C | Cc1cc2ncnn2nc1OCC(C)(C)CCCS(N)(=O)=O
32 | 188 to 192 °C | CC(C(=O)c1ccc2c(c1)CC(=O)N2)N1CCC(O)(Cc2ccccc2)CC1 (centres undefined)
33 | 112 to 114 °C | COc1cccc2c1Oc1cc(SC)ccc1C2
34 | 112 to 114 °C | CCCCC(=NOCc1ccc(OCc2nc(-c3ccccc3)oc2C)cc1)C(=O)O
35 | 117 to 120 °C | Cc1nc(N2CCN(c3ccc(F)cc3)CC2)c(C#N)nc1-c1ccccc1
36 | 80 to 82 °C | CC1(C)CCC(Cc2ccc(Cl)cc2)=C(O)C1=O
37 | 80 to 83 °C | C=CCOc1c(C(C)=O)ccc(OCCCOc2ccc3cc(C(=O)OC)oc3c2C)c1CCC

More lines, now with the values behind:

Row | Structure (SMILES) | melting point
38 | CCn1cc(CS(C)(=O)=O)c(=O)c2ccccc21 | 162 to 164 °C
39 | CCCOc1c2cc(F)c(F)cc2nc2c1c(C)nn2-c1ccccn1 | 162 to 163 °C
40 | Cc1cccc(C(=O)Nc2ccc(N3CCN(Cc4ccccc4)CC3)nc2)c1-c1ccc(C(C)C)cc1 | 138 to 140 °C
41 | O=C1OC(CCCCl)CN1c1ccccc1 (centres undefined) | 76 to 79 °C
42 | CCn1c2ccccc2c2cc(/C=C/C(=O)CC(=O)/C=C/c3ccc4c(c3)c3ccccc3n4CC)ccc21 | 264 to 267 °C
43 | CN(C(=O)c1ccc2cnccc2n1)C1CCCCC1 | 62 to 63 °C
44 | O=C1N(c2ccccc2Br)Cc2cnc(Nc3ccccc3)nc2N1c1cccc(CO)c1 | 136 °C
45 | COc1cc(CN2CCN(C(=O)c3ccc4c(c3)C(=O)c3ccccc3-4)CC2)cc(OC)c1OC | 166 to 168 °C
46 | CCCCN1CCN(c2cccc3c2C[C@H](NC(C)=O)CC3)CC1 | 118 to 120 °C
47 | c1cc(CCC(Cn2ccnc2)Sc2ccc(N3CCCC3)cc2)ccn1 (centres undefined) | 148 to 149 °C
48 | Cc1c(F)c(F)c(C(=O)NC2CCCCC2C)c(F)c1F (centres undefined) | 202 to 204 °C
49 | CCOC(=O)C=C(C)C=CC=C(C)C=Cc1c(C)cc(OC)c(OC)c1C | 203 to 204 °C
50 | O=C(O)c1ccc(NC(=O)c2ccc(Br)nc2)nc1 | 270 to 272 °C
51 | CC1(C)C(C(=O)O)N2C(=O)C(NC(=O)COc3ccccc3)C2S1=O (centres undefined) | 160 to 161 °C
52 | O=C(Nc1ccc(-n2nc(C3CC3)cc2C2CC2)cc1)c1ccc2nc[nH]c2c1 | 170 to 176 °C
53 | CN(C)CCSc1cc(NC(=O)OC(C)(C)C)c([N+](=O)[O-])cc1I | 144 °C
54 | OC(CCCN1CC=C(c2ccc(Cl)cc2)CC1)c1ccc(F)cc1 (centres undefined) | 103 to 105 °C
55 | Nc1c(Cl)cc(CC(=O)c2ccccc2)c2c1OCCO2 | 133 to 135 °C
56 | COc1cc(Nc2nccc(NCc3ccccc3)n2)cc(OC)c1OC | 135 to 136 °C
57 | Cc1ccc(-c2ccc(C(=O)Nc3ccc4nc(CN5CCCC5)ccc4c3)cn2)cc1 | 207 to 209 °C
58 | O=C(NCC(=O)c1cccs1)c1ccc(Cl)cc1 | 157 to 159 °C

Row | Structure (SMILES) | melting point
59 | COc1cc2c(cc1OC)N(C(=O)CCSC(C)=O)C(C(=O)O)CC2 (centres undefined) | 104 to 107 °C
60 | CCCN(CCC)c1ccc(S(=O)(=O)NCCCCC(=O)O)cc1 | 95 to 98 °C
61 | CCc1nn(CCO)c(CC)c1Oc1cc(C#N)cc(C#N)c1 | 125 °C
62 | CC(C)(C)OC(=O)NC(C)(C)c1ccc(Br)nc1 | 100 to 103 °C
63 | CC(C)(CNc1ccc(C(=O)CCC(=O)O)cc1)[N+](=O)[O-] | 198 to 200 °C
64 | CC(C)(c1ccc(Oc2cccc(N)c2)cc1)c1ccc(C(C)(C)c2ccc(Oc3cccc(N)c3)cc2)cc1 | 138 to 140 °C
65 | FC(F)(F)c1ccc2nc(-c3ccccc3)oc2n1 | 127 to 129 °C
66 | CC(=O)Nc1ccc(C=O)c(C)c1C#N | 170 to 173 °C
67 | CCn1cc2c(C3CC3CNC(C)=O)cccc2n1 (centres undefined) | 155 to 159 °C
68 | CC1(C)OC[C@H](CCOc2ccc(-c3nc4c5ccccc5c5ccccc5c4[nH]3)cc2)O1 | 196 to 198 °C
69 | O=c1[nH]nc2n1C=Cc1cc(Cl)ccc1C2 | 281 to 283 °C
70 | COc1ccc(N2CCOCC2)c2sc(-c3nc4c([nH]3)CCN(C(=O)c3ccc(F)cc3)CC4)nc12 | 205 to 207 °C
71 | N#Cc1ccc(CN(N)c2ccc(Br)cc2)cc1 | 114 °C
72 | Cc1nccn1-c1nc(-c2ccc(Cl)cc2)c(CCCN2C(=O)COC2=O)o1 | 152 to 153 °C
73 | Cc1cc(-c2ccc(C(F)(F)F)cc2)cc(-c2cccc(-c3csc(N)n3)c2)n1 | > 250 °C
74 | C=CCOc1ccc(OC[C@H]2CC[C@H](C=C)CC2)c(F)c1F | 27.3 °C
75 | CCCCCCCc1cnc(-c2ccc(OCC(F)CCCCCC)c(F)c2F)nc1 (centres undefined) | 56 °C
76 | CCOCCCC(NC=O)C1(c2ccc(Cl)cc2)CCC1 (centres undefined) | 58 to 59 °C
77 | CCOC(=O)c1cn(Cc2cnsn2)c2cc(F)c(F)cc2c1=O | 198 to 201 °C
78 | CCCOc1cc(CCCOc2nn(Cc3ccccc3)cc2CC(=O)O)n(Cc2ccc(F)cc2F)n1 | 94 to 95 °C
79 | N#CC(C(=O)N1CCOCC1)=C1Nc2ccccc2O1 | 217 to 219 °C

Row | Structure (SMILES) | melting point
80 | Cc1c(Br)cc(NC(=O)c2cccc(CSc3cnccn3)c2)cc1Br | 119 to 127 °C
81 | COC(=O)NNC(C)=S | 99 to 100 °C
82 | COc1ccc(C(=NO)c2sccc2Br)cc1 | 110 to 115 °C
83 | CC(=O)NCc1cc2n(n1)-c1ccc([N+](=O)[O-])cc1C(c1ccccc1)=NC2 | 208 to 211 °C
84 | CC1(C)CCn2c(nc(-c3ccncn3)cc2=O)N1 | 265 to 267 °C
85 | CC(C)(C)OC(=O)CN(C(=O)CNC(=O)Nc1cccc(CC(=O)O)c1)c1ccccc1C(=O)c1ccccc1 | 96 to 98 °C
86 | Cn1cc(C(=O)NCc2ccc(Cl)cc2)c(=O)c2cc(CN3CCOc4ccccc43)ccc21 | 193 to 194 °C
87 | CCOC(=O)COc1ccc(C(=O)Nc2ccccc2S(=O)c2ccccc2C#N)cc1 (centres undefined) | 128 to 130 °C
88 | CC(C)n1nc(-c2sc(NC(=O)c3ccc(CNCCN4CCOCC4)cc3)nc2-c2ccccc2)ccc1=O | 86 to 88 °C
89 | Fc1c(Cl)cccc1COc1cccnc1NC(=S)Nc1ccc(Cl)cc1 | 174 to 176 °C
90 | COc1cc2c(Nc3cc(O)c(Cl)cc3F)c(C#N)cnc2c(OC)c1OC | 223 to 225 °C
91 | CCOCCOCCOCCOc1cc(OCCCCCCCCCCCCOc2ccccc2)cc(N(CC(=O)OC)CC(=O)OC)c1 | < 24 °C
92 | CCOc1ccc(C2=NN(c3ccc(S(=O)(=O)O)cc3)C(=O)[C@H]3CC=CC[C@@H]23)cc1OCC (relative stereo) | 65 to 69 °C
93 | NS(=O)(=O)c1cc2ccccc2n1S(=O)(=O)c1ccccc1 | 199 to 200 °C
94 | CC(CC(=O)O)C(=O)c1ccc2c(c1)OCC(=O)N2 (centres undefined) | 170 to 172 °C
95 | CC(=CC(=O)c1ccc(C(F)(F)F)cc1[N+](=O)[O-])N(C)C | 122 °C
96 | Cn1nc(-c2c(Cl)cncc2Cl)nc1C1(C)CC1(Cl)Cl (centres undefined) | 79 to 83 °C
97 | CCN(CC)c1ccc2c(c1)OC(C(F)(F)F)C(C(=O)O)=C2 (centres undefined) | 214 to 215 °C
98 | CC(=O)OC1C(Oc2cccc(O)c2C(=O)CCc2ccc3occc3c2)OC(CO)C(O)C1OC(C)=O (centres undefined) | 127 to 129 °C
99 | O=C(Nc1cccc(CN2C(=O)[C@H]3CCC[C@H]3N(C(=O)CN3C(=O)c4ccccc4C3=O)c3ccccc32)c1)OCc1ccccc1 (relative stereo) | 224 to 225 °C
